The source of these data is patent US20250326738A1, “MALT1 Modulators and Uses Thereof” (Rarefied Biosciences, Inc., priority 2022, published 2025).

One may read the IC50 as the concentration that gives 50% inhibition.

In one assay the target is T1, full length MALT1 (Homo sapiens, UniProt Q9UDY8).
T1 construct: measuring enzymatic activity of full length MALT1 at varying concentrations of compound
T1 sequence (Q9UDY8 1-824): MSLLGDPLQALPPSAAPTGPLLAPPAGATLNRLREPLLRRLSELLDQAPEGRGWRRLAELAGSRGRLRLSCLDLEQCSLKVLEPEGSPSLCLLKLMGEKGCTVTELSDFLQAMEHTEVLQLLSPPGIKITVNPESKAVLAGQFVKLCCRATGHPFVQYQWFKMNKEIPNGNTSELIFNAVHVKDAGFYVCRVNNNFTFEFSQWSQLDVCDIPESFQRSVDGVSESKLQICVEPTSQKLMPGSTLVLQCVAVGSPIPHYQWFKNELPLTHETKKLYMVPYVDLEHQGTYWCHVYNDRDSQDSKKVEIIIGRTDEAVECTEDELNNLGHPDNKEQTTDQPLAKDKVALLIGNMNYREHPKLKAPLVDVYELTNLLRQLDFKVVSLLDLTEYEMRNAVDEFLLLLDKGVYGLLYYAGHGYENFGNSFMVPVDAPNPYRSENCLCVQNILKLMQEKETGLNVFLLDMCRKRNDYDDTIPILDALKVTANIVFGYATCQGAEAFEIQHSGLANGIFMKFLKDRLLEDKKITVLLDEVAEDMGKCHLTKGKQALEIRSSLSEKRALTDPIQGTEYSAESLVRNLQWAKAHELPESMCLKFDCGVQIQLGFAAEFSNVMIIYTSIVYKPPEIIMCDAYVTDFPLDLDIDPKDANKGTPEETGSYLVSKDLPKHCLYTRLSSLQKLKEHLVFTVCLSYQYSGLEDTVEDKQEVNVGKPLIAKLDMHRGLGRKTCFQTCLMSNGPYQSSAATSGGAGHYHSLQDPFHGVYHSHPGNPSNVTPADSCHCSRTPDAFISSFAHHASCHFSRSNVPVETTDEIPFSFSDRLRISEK
The assay is described as follows: MALT1 biochemical assay (fluorogenic peptide substrate cleavage). Conditions: full length MALT1, 15 nM enzyme, 30 μM peptide substrate, 30 min pre-incubation, 60 min reaction; mean if tested more than once. The method, then:
Inhibitor potency was evaluated by measuring enzymatic activity of full length MALT1 at varying concentrations of compound. The enzymatic assay consists of a single substrate reaction that monitors the release of a fluorescent dye upon cleavage of the peptide substrate. […] The assay buffer consists of 50 mM Hepes, pH 7.5, 0.8 M sodium citrate, 1 mM DTT, 0.004% tween-20, and 0.005% bovine serum albumin (BSA). […] The reaction was quenched after 60 minutes with the addition of iodoacetate at a final concentration of 10 mM. Total fluorescence was measured using an Envision (PerkinElmer) with fluorescence excitation at 485 nm and emission at 520 nm.
The reaction was initiated with the addition of 10 μL of peptide substrate. […] IC50 values were calculated by fitting the concentration-response curves to a four-parameter logistic equation in GraphPad Prism.
“N/A” indicates not tested.

For the next assay, the system named is Jurkat IL-2. The assay is described as follows: Jurkat IL-2 assay (IL-2 inhibition by ELISA after anti-CD3/28/2 stimulation). The format is cell-based. Conditions: Jurkat clone E6.1, IL-2 in supernatant, 30 min pre-incubation, anti-CD3/28/2 stimulation 24 hours, mean if tested more than once. The method, then: Inhibition was determined in a cell-based assay using Jurkat (ATCC, clone E6.1), an immortalized T-cell line, exposed to a dose response of compound and assessed for viability, and IL-2 inhibition by ELISA. Cells were cultured in RPMI/10% FBS (Invitrogen 11875093, Atlanta Biologicals S12450H), maintained below 3E6/mL and only used in assays while below passage 25. Compounds were stamped by ECHO onto 384w plates (PerkinElmer Culturplate, 6007680). The cells were plated in fresh media on top of compound and incubated for 30 minutes before stimulation with soluble anti-CD3/28/2 (Stemcell, 10970) for 24 hours. Supernatant was collected and assessed for IL-2 (MSD, 384w, L21SA-1). To assess viability of cells treated with compound, cells were lysed with CTG reagent (Promega, G7570), and measured by luminometer. […] IC50s calculated using 4-parameter fit in GraphPad Prism.
“N/A” indicates not tested. For a compound that was tested in more than one experiment, the result shown represents the mean value.

Take `CC(C)c1c(Nc2ccc([C@H](N(C)C(=O)C3CCS(=O)(=O)CC3)C(F)(F)F)cc2)cnn1C` [Compound 1.5]: the IC50 on full length MALT1 and in the assay on Jurkat IL-2 (Homo sapiens) was above 1000 nM throughout. `CC(=O)N1CCC(C(=O)N(C)[C@@H](c2ccc(Nc3cnn(-c4cccnc4)c3C(F)(F)F)cc2)C(F)(F)F)CC1` [Compound 1.27]: the IC50 against full length MALT1 and with Jurkat IL-2 (Homo sapiens) was below 100 nM throughout. For the molecule `CN(C(=O)C1CCS(=O)(=O)CC1)[C@@H](c1ccc(Nc2cnn(-c3cccc4ncccc34)c2C(F)(F)F)cc1)C(F)(F)F` [Compound 1.2], the IC50 at full length MALT1 and in the assay on Jurkat IL-2 (Homo sapiens) was 100 to 1000 nM in each case. Consider `Cc1ccccc1-n1ncc(Nc2ccc([C@H](N(C)C(=O)C3CCS(=O)(=O)CC3)C(F)(F)F)cc2)c1C(F)(F)F` [Compound 1.3], for which the IC50 is above 1000 nM on full length MALT1 and 100 to 1000 nM in the assay on Jurkat IL-2 (Homo sapiens).

Turning to `CC(=O)N1CCC(C(=O)N(C)[C@@H](c2ccc(Nc3cnn(-c4cccc(C#N)c4)c3C(F)(F)F)cc2)C(F)(F)F)CC1` [Compound 1.28], the IC50 on full length MALT1 and in the assay with Jurkat IL-2 (Homo sapiens) was below 100 nM in each case. As to “(1r,4S)—N—((S)-1-(4-((4-cyclopropyl-1,5-naphthyridin-3-yl)amino)phenyl)-2,2,2-trifluoroethyl)-N-methyl-4-(1H-tetrazol-5-yl)cyclohexane-1-carboxamide [Compound 3.1]”, the figures for the IC50 against full length MALT1 and in the assay on Jurkat IL-2 were above 1000 nM and 100 to 1000 nM, respectively.

`CO[C@@H](C)c1c(Nc2ccc([C@H](N(C)C(=O)C3CN(C(C)=O)C3)C(F)(F)F)cc2)cnn1-c1ccccc1` [Compound 1.38]: the IC50 on full length MALT1 and in the assay on Jurkat IL-2 (Homo sapiens) was 100 to 1000 nM throughout.

With `CN(C(=O)C1CCS(=O)(=O)CC1)[C@@H](c1ccc(Nc2cnn(-c3ccccn3)c2C(F)(F)F)cc1)C(F)(F)F` [Compound 1.15], the IC50 on full length MALT1 and with Jurkat IL-2 (Homo sapiens) was below 100 nM throughout. With `COC(C)c1c(Nc2ccc([C@H](N(C)C(=O)C3CCS(=O)(=O)CC3)C(F)(F)F)cc2)cnn1-c1cccnc1` (stereo partly shown) [Compound 1.23], the IC50 at full length MALT1 and with Jurkat IL-2 (Homo sapiens) was 100 to 1000 nM throughout. For `CC(=O)N1CC(C(=O)N(C)[C@@H](c2ccc(Nc3cnn(-c4ccccn4)c3C3CC3)cc2)C(F)(F)F)C1` [Compound 1.40], the IC50 against full length MALT1 is below 100 nM; in the assay with Jurkat IL-2 (Homo sapiens), 100 to 1000 nM. For `CN(C(=O)[C@H]1CC[C@H](C(=O)O)CC1)[C@@H](c1ccc(Nc2cnn(-c3ccncc3)c2C(F)(F)F)cc1)C(F)(F)F` [Compound 2.2] the same measures were 100 to 1000 nM and 100 to 1000 nM. On to `CN(C(=O)C1CCS(=O)(=O)CC1)[C@@H](c1ccc(Nc2cnn(CC(C)(C)O)c2C(F)(F)F)cc1)C(F)(F)F` [Compound 1.10], for which the IC50 against full length MALT1 and in the assay with Jurkat IL-2 (Homo sapiens) was above 1000 nM throughout.

In the case of `CN(C(=O)[C@H]1CC[C@H](C(=O)O)CC1)[C@@H](c1ccc(Nc2cnn(-c3ccccc3)c2C(F)(F)F)cc1)C(F)(F)F` [Compound 2.1, (1S,4r)-4-(methyl((S)-2,2,2-trifluoro-1-(4-((1-phenyl-5-(trifluoromethyl)-1H-pyrazol-4-yl)amino)phenyl)ethyl)carbamoyl)cyclohexane-1-carboxylic acid], the IC50 on full length MALT1 and with Jurkat IL-2 (Homo sapiens) was below 100 nM each time. Regarding `CN(C(=O)C1CCS(=O)(=O)CC1)[C@@H](c1ccc(Nc2cnn(-c3ccccc3)c2C(F)(F)F)cc1)C(F)(F)F` [Compound 1.6], the IC50 at full length MALT1 and in the assay on Jurkat IL-2 (Homo sapiens) was 100 to 1000 nM throughout.

For `CN(C(=O)C1CCS(=O)(=O)CC1)[C@@H](c1ccc(Nc2cnn(-c3ccncn3)c2C(F)(F)F)cc1)C(F)(F)F` [Compound 1.20], the IC50 against full length MALT1 and with Jurkat IL-2 (Homo sapiens) was below 100 nM in each case. `CN(C(=O)C1CCS(=O)(=O)CC1)[C@@H](c1ccc(Nc2cnn(-c3ccnnc3)c2C(F)(F)F)cc1)C(F)(F)F` [Compound 1.22]: the IC50 against full length MALT1 is below 100 nM; with Jurkat IL-2 (Homo sapiens), 100 to 1000 nM. The like results for `CO[C@@H](C)c1c(Nc2ccc([C@H](N(C)C(=O)[C@H]3CC[C@H](C(=O)O)CC3)C(F)(F)F)cc2)cnn1-c1cccnc1` [Compound 2.8] were, in that order, 100 to 1000 nM and 100 to 1000 nM. `CC(=O)N1CC(C(=O)N(C)[C@@H](c2ccc(Nc3cnn(-c4cccc(C#N)c4)c3C(F)(F)F)cc2)C(F)(F)F)C1` [Compound 1.35]: the IC50 at full length MALT1 is 100 to 1000 nM; in the assay with Jurkat IL-2 (Homo sapiens), below 100 nM.

In the case of `CC(=O)N1CC(C(=O)N(C)[C@@H](c2ccc(Nc3cnn(-c4cccnc4)c3C(F)(F)F)cc2)C(F)(F)F)C1` [Compound 1.36], the IC50 at full length MALT1 and in the assay with Jurkat IL-2 (Homo sapiens) was below 100 nM each time. With `CN(C(=O)[C@H]1CC[C@H](C(=O)O)CC1)[C@@H](c1ccc(Nc2cnn(-c3cccnn3)c2C(F)(F)F)cc1)C(F)(F)F` [Compound 2.9], the IC50 against full length MALT1 and in the assay on Jurkat IL-2 (Homo sapiens) was below 100 nM each time. For `CO[C@@H](C)c1c(Nc2ccc([C@H](N(C)C(=O)C3CCN(C(C)=O)CC3)C(F)(F)F)cc2)cnn1-c1cccnc1` [Compound 1.34], the IC50 against full length MALT1 and with Jurkat IL-2 (Homo sapiens) was 100 to 1000 nM throughout. Turning to `CC(=O)N1CC(C(=O)N(C)[C@@H](c2ccc(Nc3cnn(-c4cccc(C#N)c4)c3C3CC3)cc2)C(F)(F)F)C1` [Compound 1.39], the IC50 against full length MALT1 and in the assay with Jurkat IL-2 (Homo sapiens) was 100 to 1000 nM in each case. For `CN(C(=O)[C@H]1C[C@H](C(=O)O)C1)[C@@H](c1ccc(Nc2cnn(-c3ccccn3)c2C(F)(F)F)cc1)C(F)(F)F` [Compound 2.11, (1r,3r)-3-{methyl[(1S)-2,2,2-trifluoro-1-(4-{[1-(pyridin-2-yl)-5-(trifluoromethyl)-1H-pyrazol-4-yl]amino}phenyl)ethyl]carbamoyl}cyclobutane-1-carboxylic Acid Amine], the IC50 at full length MALT1 and in the assay with Jurkat IL-2 (Homo sapiens) was below 100 nM throughout. `CN(C(=O)[C@H]1CC[C@H](C(=O)O)CC1)[C@@H](c1ccc(Nc2cnn(-c3ccccn3)c2C(F)(F)F)cc1)C(F)(F)F` [Compound 2.4]: the IC50 against full length MALT1 and in the assay with Jurkat IL-2 (Homo sapiens) was below 100 nM each time. Consider `CO[C@@H](C)c1c(Nc2ccc([C@H](N(C)C(=O)[C@H]3CC[C@H](C(=O)O)CC3)C(F)(F)F)cc2)cnn1-c1cccc(C#N)c1` [Compound 2.10], for which the IC50 against full length MALT1 was below 100 nM; with Jurkat IL-2 (Homo sapiens) it was 100 to 1000 nM. Turning to `CN(C(=O)C1CCS(=O)(=O)CC1)[C@@H](c1ccc(Nc2cnn(-c3cccnc3)c2C(F)(F)F)cc1)C(F)(F)F` [Compound 1.13], the IC50 against full length MALT1 and in the assay on Jurkat IL-2 (Homo sapiens) was below 100 nM each time.

As to `CO[C@@H](C)c1c(Nc2ccc([C@H](N(C)C(=O)[C@H]3CC[C@H](C(=O)O)CC3)C(F)(F)F)cc2)cnn1-c1ccccn1` [Compound 2.5], the IC50 on full length MALT1 is below 100 nM; in the assay with Jurkat IL-2 (Homo sapiens) it was 100 to 1000 nM. On to `CO[C@@H](C)c1c(Nc2ccc([C@H](N(C)C(=O)[C@H]3CC[C@H](C(=O)O)CC3)C(F)(F)F)cc2)cnn1-c1ccccc1` [Compound 2.6], for which the IC50 at full length MALT1 and in the assay with Jurkat IL-2 (Homo sapiens) was 100 to 1000 nM throughout.

As to `CN(C(=O)[C@H]1CC[C@H](C(=O)O)CC1)[C@@H](c1ccc(Nc2cnn(-c3cccnc3)c2C(F)(F)F)cc1)C(F)(F)F` [Compound 2.3], the IC50 at full length MALT1 was 100 to 1000 nM; in the assay on Jurkat IL-2 (Homo sapiens), below 100 nM.

On to `CN(C(=O)C1CCS(=O)(=O)CC1)[C@@H](c1ccc(Nc2cnn(-c3cccnn3)c2C(F)(F)F)cc1)C(F)(F)F` [Compound 1.21], for which the IC50 against full length MALT1 and in the assay on Jurkat IL-2 (Homo sapiens) was below 100 nM each time.

As for `CC(=O)N1CC(C(=O)N(C)[C@@H](c2ccc(Nc3cnn(-c4cccnc4)c3C3CC3)cc2)C(F)(F)F)C1` [Compound 1.41], in the assay on Jurkat IL-2 (Homo sapiens), the IC50 fell in the range of 100 to 1000 nM.
